Results from ChEMBL document CHEMBL1201862, “PubChem BioAssay data set” (2004).
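These data come from cells grown in 96-well plates and exposed to compound for 48 hours at five concentrations. GI50: concentration for 50% inhibition of growth.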 The source made the active and inactive calls. Cut-off read from the data, not from the text of the source: active = GI50 up to about 1.1 µM and inactive = higher.

How the values were obtained:
Assay in all cases: NCI anticancer screen, dose series, 48 h
[1] = system: MDA-MB-435
[2] = system: SF-539
[3] = system: TK-10
[4] = system: NCI-H226
[5] = system: 786-0
[6] = system: HT-29
[7] = system: CAKI-1
[8] = system: SW-620
[9] = system: UACC-257
[10] = system: PC-3
[11] = system: RPMI-8226
[12] = system: SK-OV-3
[13] = system: MCF7
[14] = system: COLO 205
[15] = system: ACHN
[16] = system: M14
[17] = system: HL-60
[18] = system: SK-MEL-28
[19] = system: OVCAR-4
[20] = system: SN12C
[21] = system: HCT-116
[22] = system: UO-31
[23] = system: NCI/ADR-RES
[24] = system: SF-268
[25] = system: MOLT-4
[26] = system: MDA-MB-231
[27] = system: Malme-3M
[28] = system: NCI-H23
[29] = system: UACC-62
[30] = system: OVCAR-5
[31] = system: SNB-75
[32] = system: IGROV-1
[33] = system: NCI-H522
[34] = system: CCRF-CEM
[35] = system: MDA-N
[36] = system: SNB-19
[37] = system: Hs-578T
[38] = system: K562
[39] = system: U-251
[40] = system: OVCAR-8
[41] = system: SR
[42] = system: LOX IMVI
[43] = system: A549
[44] = system: SF-295
[45] = system: KM12
[46] = system: OVCAR-3
[47] = system: HCT-15
[48] = system: BT-549
[49] = system: EKVX
[50] = system: DU-145
[51] = system: NCI-H460
[52] = system: HOP-62
[53] = system: SK-MEL-2
[54] = system: SK-MEL-5
[55] = system: HOP-92
[56] = system: RXF 393
[57] = system: A498
[58] = system: HCC 2998
[59] = system: T47D

## CN(c1ccccc1Cl)S(=O)(=O)c1ccccc1
[1]
  GI50: 76.6 µM (inactive)
[2]
  GI50: > 100 µM (inactive)
[3]
  GI50: > 100 µM (inactive)
[4]
  GI50: > 100 µM (inactive)
[5]
  GI50: > 100 µM (inactive)
[6]
  GI50: > 100 µM (inactive)
[7]
  GI50: > 100 µM (inactive)
[8]
  GI50: > 100 µM (inactive)
[9]
  GI50: > 100 µM (inactive)
[10]
  GI50: 44.3 µM (inactive)
[11]
  GI50: > 100 µM (inactive)
[12]
  GI50: 93.1 µM (inactive)
[13]
  GI50: > 100 µM (inactive)
[14]
  GI50: > 100 µM (inactive)
[15]
  GI50: > 100 µM (inactive)
[16]
  GI50: > 100 µM (inactive)
[17]
  GI50: 14.6 µM (inactive)
[18]
  GI50: > 100 µM (inactive)
[19]
  GI50: > 100 µM (inactive)
[20]
  GI50: > 100 µM (inactive)
[21]
  GI50: 82.4 µM (inactive)
[22]
  GI50: 52.4 µM (inactive)
[23]
  GI50: > 100 µM (inactive)
[24]
  GI50: > 100 µM (inactive)
[25]
  GI50: 45 µM (inactive)
[26]
  GI50: 81.5 µM (inactive)
[27]
  GI50: > 100 µM (inactive)
[28]
  GI50: 54.5 µM (inactive)
[29]
  GI50: > 100 µM (inactive)
[30]
  GI50: > 100 µM (inactive)
[31]
  GI50: > 100 µM (inactive)
[32]
  GI50: > 100 µM (inactive)
[33]
  GI50: > 100 µM (inactive)
[34]
  GI50: > 100 µM (inactive)
[35]
  GI50: > 100 µM (inactive)
[36]
  GI50: > 100 µM (inactive)
[37]
  GI50: 68.5 µM (inactive)
[38]
  GI50: 51.8 µM (inactive)
[39]
  GI50: > 100 µM (inactive)
[40]
  GI50: > 100 µM (inactive)
[41]
  GI50: 55.8 µM (inactive)
[42]
  GI50: > 100 µM (inactive)
[43]
  GI50: > 100 µM (inactive)
[44]
  GI50: > 100 µM (inactive)
[45]
  GI50: > 100 µM (inactive)
[46]
  GI50: > 100 µM (inactive)
[47]
  GI50: > 100 µM
[48]
  GI50: 56.2 µM (inactive)
[49]
  GI50: 50.4 µM (inactive)
[50]
  GI50: > 100 µM (inactive)
[51]
  GI50: > 100 µM (inactive)
[52]
  GI50: > 100 µM (inactive)
[53]
  GI50: > 100 µM (inactive)
[54]
  GI50: 34.9 µM (inactive)

## N=C(N)N/N=C/c1c(-c2cc([N+](=O)[O-])c(Cl)cc2Cl)nc2n1CCS2
[1]
  GI50: 9.38 µM (inactive)
[2]
  GI50: 42.5 µM (inactive)
[3]
  GI50: 15.5 µM (inactive)
[4]
  GI50: 34.4 µM (inactive)
[5]
  GI50: 32.4 µM (inactive)
[6]
  GI50: 7.08 µM (inactive)
[7]
  GI50: 40 µM (inactive)
[55]
  GI50: 20.7 µM (inactive)
[8]
  GI50: 3.97 µM (inactive)
[56]
  GI50: 41.5 µM (inactive)
[9]
  GI50: 20.7 µM (inactive)
[57]
  GI50: 77.3 µM (inactive)
[10]
  GI50: 13.2 µM (inactive)
[11]
  GI50: 7.6 µM (inactive)
[13]
  GI50: 2.67 µM (inactive)
[14]
  GI50: 2.66 µM (inactive)
[15]
  GI50: 22.4 µM (inactive)
[16]
  GI50: 6.04 µM (inactive)
[17]
  GI50: 5.08 µM (inactive)
[18]
  GI50: 5.16 µM (inactive)
[19]
  GI50: 10.4 µM (inactive)
[20]
  GI50: 23.4 µM (inactive)
[21]
  GI50: 5.01 µM (inactive)
[22]
  GI50: 18.2 µM (inactive)
[23]
  GI50: > 100 µM (inactive)
[24]
  GI50: 9.93 µM (inactive)
[25]
  GI50: 6.79 µM (inactive)
[58]
  GI50: 2.55 µM (inactive)
[26]
  GI50: 24.1 µM (inactive)
[59]
  GI50: 2.47 µM (inactive)
[27]
  GI50: 24.5 µM (inactive)
[28]
  GI50: 5.33 µM (inactive)
[29]
  GI50: 25.5 µM (inactive)
[30]
  GI50: 79.3 µM (inactive)
[32]
  GI50: 16.4 µM (inactive)
[33]
  GI50: 17 µM (inactive)
[34]
  GI50: 2.84 µM (inactive)
[36]
  GI50: 3.87 µM (inactive)
[37]
  GI50: 27.9 µM (inactive)
[38]
  GI50: 2.88 µM (inactive)
[39]
  GI50: 3.21 µM (inactive)
[40]
  GI50: 26.5 µM (inactive)
[41]
  GI50: 0.951 µM (active)
[42]
  GI50: 6.35 µM (inactive)
[43]
  GI50: 32.7 µM (inactive)
[44]
  GI50: 25.6 µM (inactive)
[45]
  GI50: 4.83 µM (inactive)
[46]
  GI50: 8.04 µM (inactive)
[47]
  GI50: 47 µM
[48]
  GI50: 3.18 µM (inactive)
[49]
  GI50: 40.9 µM (inactive)
[50]
  GI50: 27.6 µM (inactive)
[51]
  GI50: 27.6 µM (inactive)
[52]
  GI50: 42.4 µM (inactive)
[53]
  GI50: 3.13 µM (inactive)
[54]
  GI50: 29.9 µM (inactive)
